Experimental findings from US6608082B1, “Treatment of erectile dysfunction using isoquinoline compound melanocortin receptor ligands” (Lion Bioscience AG, priority 1998, dated 2003) are described below.

One test relates to IL-10. Put plainly: Increasing levels of IL-10 in mice (plasma ELISA). It counts as in vivo. Conditions: for % IL-10 Induction, IP 30: 30 μg per mouse; for % IL-10 Induction, IP 300 / % IL-10 Induction, Oral 300: 300 μg per mouse; for % IL-10 Induction, Oral 600: 600 μg per mouse. On the procedure:
Isoquinoline compounds were administered intraperitoneally to mice in doses of 30, 100 or 300 μg/mouse or orally in doses of 300 or 600 μg/mouse. Levels of IL-10 were measured 90 or 105 minutes after administration as indicated. Samples were collected and diluted, when appropriate, as described in Example VI. A 100 μl sample of plasma was assayed by ELISA for IL-10. Briefly, ELISA plates were coated with rat anti-mouse IL-10 monoclonal antibody (Pharmingen; San Diego Calif.). Samples or known concentrations of IL-10 were added to the coated plates and incubated for 2 hr at 37° C. Plates were washed and incubated with biotinylated rat anti-mouse IL-10 (R&D Systems; Minneapolis Minn.) for 1 hr at 37° C. Plates were washed and incubated with streptavidin-HRP 30 min at 37° C., and HRP activity was detected with hydrogen peroxide and TMB using standard immunoassay procedures.
For orientation: In an ELISA, binding on a coated surface is turned into a signal by an enzyme label.

The target of the next test is T1, MCR-3 (Homo sapiens, UniProt P41968).
T1 construct: expressed in transfected cells; host or cells: HEK 293
Description: Melanocortin receptor binding assay, competition with 125I-HP 467, HEK 293 cells expressing hMCR-3. To be noted: binding to MCR-3, HEK 293 cells; read-out: MC-3 IC50. An excerpt:
All cell culture media and reagents were obtained from GibcoBRL (Gaithersburg Md.), except for COSMIC CALF SERUM (HyClone; Logan Utah). HEK-293 cell lines were transfected with the human MC receptors hMCR-1, hMCR-3, and hMCR-4 (Gantz et al., Biochem. Biophys. Res. Comm. 200:1214-1220 (1994); Gantz et al., J. Biol. Chem. 268:8246-8250 (1993); Gantz et al. J. Biol. Chem. 268:15174-15179 (1993); Haskell-Leuvano et al., Biochem. Biophys. Res. Comm. 204:1137-1142 (1994); each of which is incorporated herein by reference). Vectors for construction of an hMCR-5 expressing cell line were obtained, and a line of HEK 293 cells expressing hMCR-5 was constructed (Gantz, supra, 1994). hMCR-5 has been described previously (Franberg et al., Biochem. Biophys. Res. Commun. 236:489-492 (1997); Chowdhary et al., Cytogenet. Cell Genet. 68:1-2 (1995); Chowdhary et al., Cytogenet. Cell Genet. 68:79-81 (1995), each of which is incorporated herein by reference). HEK 293 cells were maintained in DMEM, 25 mM HEPES, 2 mM glutamine, non-essential amino acids, vitamins, sodium pyruvate, 10% COSMIC CALF SERUM, 100 units/ml penicillin, 100 μg/ml streptomycin and 0.2 mg/ml G418 to maintain selection.
Before assaying, cells were washed once with phosphate buffered saline (“PBS”; without Ca^2+ and Mg^2+), and stripped from the flasks using 0.25% trypsin and 0.5 mM EDTA. Cells were suspended in PBS, 10% COSMIC CALF SERUM and 1 mM CaCl2. Cell suspensions were prepared at a density of 2×10^4 cells/ml for HEK 293 cells expressing hMCR-3, hMCR-4 or hMCR-5, and 1×10^5 cells/ml for HEK 293 cells expressing hMCR-1. Suspensions were placed in a water bath and allowed to warm to 37° C. for 1 hr.
Binding assays were performed in a total volume of 250 μl for HEK 293 cells. Control and test compounds were dissolved in distilled water. ^125I-HP 467 (50,000 dpm) (2000 Ci/mmol) (custom labeled by Amersham; Arlington Heights Ill.) was prepared in 50 mM Tris, pH 7.4, 2 mg/ml BSA, 10 mM CaCl2, 5 mM MgCl2, 2 mM EDTA and added to each tube. To each tube was added 4×10^3 HEK 293 cells expressing hMCR-3, hMCR-4 or hMCR-5, or 2×10^4 cells expressing hMCR-1. Assays were incubated for 2.5 hr at 37° C.
GF/B filter plates were prepared by soaking for at least one hour in 5 mg/ml BSA and 10 mM CaCl2. Assays were filtered using a Brandel 96-well cell harvester (Brandel Inc.; Gaithersburg, Md.). The filters were washed four times with cold 50 mM Tris, pH 7.4, the filter plates were dehydrated for 2 hr and 35 μl of MICROSCINT was added to each well. Filter plates were counted using a Packard Topcount (Packard Instrument Co.) and data analyzed using GraphPad PRISM v2.0 (GraphPad Software Inc.; San Diego Calif.) and Microsoft EXCEL v5.0a (Microsoft Corp.; Redmond Wash.).
To assay isoquinoline compounds, binding assays were performed in duplicate in a 96 well format. HP 467 was prepared in 50 mM Tris, pH 7.4, and ^125I-HP 467 was diluted to give 100,000 dpm per 50 μl. An isoquinoline compound, synthesized as described in Example I, was added to the well in 25 μl aliquots. A 25 μl aliquot of ^125I-HP 467 was added to each well. A 0.2 ml aliquot of suspended cells was added to each well to give the cell numbers indicate above, and the cells were incubated at 37° C. for 2.5 hr. Cells were harvested on GF/B filter plates as described above and counted.
Some of the isoquinoline compounds were further tested for binding to MCR-3 and MCR-5.

The target in another test is T2, MCR-1 (Homo sapiens, UniProt Q01726).
T2 construct: expressed in transfected cells; host or cells: HEK 293
Description: Melanocortin receptor binding assay, competition with 125I-HP 467, HEK 293 cells expressing hMCR-1. To be noted: for % Disp. of 125I-HP 467 (first of duplicate) / % Disp. of 125I-HP 467 (second of duplicate): 10 μM isoquinoline compound; for % Disp. of 125I-HP 467 (first of duplicate): HEK 293 cells expressing MCR-1, duplicate 1; for % Disp. of 125I-HP 467 (second of duplicate): HEK 293 cells expressing MCR-1, duplicate 2; for specificity for at least one MC receptor over another MC receptor: MCR-1 versus MCR-4 binding; for effectiveness as MC receptor ligand: binding to MC receptors, Table 1; for IC50: read-out: MC-1 IC50. A digest of the protocol:
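Intact-cell competition binding, 2.5 hr at 37 °C, in PBS/10% calf serum/1 mM CaCl2; hMCR-4 cells at 4×10^3 per tube, hMCR-1 cells at 2×10^4 per tube. Filtration on BSA/CaCl2-soaked GF/B, cold 50 mM Tris pH 7.4 washes, scintillation count.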

Where [1] appears, read: IP, mouse plasma, 90 or 105 minutes.
The mark [2] stands for this setting: mouse plasma, 90 or 105 minutes.
Setting [3] is: TRG 2408 and TRG 2409 libraries, inhibition of 125I-HP 467 binding.

Molecules are shown by their SMILES. Values joined by “and” are separate entries in the source; they are usually repeats but may differ in a detail not shown here. Equal values may be shown once. Read-outs that look alike come from different tables or passages of the source.

As usually defined, the IC50 is the midpoint of a concentration-inhibition curve.

T1 sequence (P41968 whole entry): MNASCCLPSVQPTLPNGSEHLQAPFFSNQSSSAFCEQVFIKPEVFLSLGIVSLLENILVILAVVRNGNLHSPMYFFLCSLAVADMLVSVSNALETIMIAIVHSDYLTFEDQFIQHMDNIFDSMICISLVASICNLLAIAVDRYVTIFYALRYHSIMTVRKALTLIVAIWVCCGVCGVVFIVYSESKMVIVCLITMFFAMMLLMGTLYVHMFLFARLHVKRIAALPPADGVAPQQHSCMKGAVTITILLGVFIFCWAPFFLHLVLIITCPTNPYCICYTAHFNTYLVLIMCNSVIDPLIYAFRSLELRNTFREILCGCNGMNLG
T2 sequence (Q01726 whole entry): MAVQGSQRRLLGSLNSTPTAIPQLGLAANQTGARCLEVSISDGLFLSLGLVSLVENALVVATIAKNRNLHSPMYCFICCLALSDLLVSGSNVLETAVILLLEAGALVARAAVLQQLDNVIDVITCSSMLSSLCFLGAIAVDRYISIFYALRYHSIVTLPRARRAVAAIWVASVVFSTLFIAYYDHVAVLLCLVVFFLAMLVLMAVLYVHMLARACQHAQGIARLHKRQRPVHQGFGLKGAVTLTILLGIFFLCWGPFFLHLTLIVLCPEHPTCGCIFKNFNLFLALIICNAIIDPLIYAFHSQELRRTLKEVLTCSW

For the compound `CCCOc1ccc(C2C(CNC3CCCCC3)c3ccccc3CN2CCCCC(CN)NC)cc1` (centres unmarked) [TRG 2405-253], in the test with IL-10 (setting [1]), the “% IL-10 Induction, IP 30” value came out at 7 ± 21% and the “% IL-10 Induction, IP 300” value came out at 325 ± 73 %. Also, the “increase of IL-10” value with IL-10 (plasma levels in mice) is “particularly effective at increasing IL-10”. The IC50 on MCR-3 came out at 9680 nM. Also, at MCR-1, the “% Disp. of 125I-HP 467 (first of duplicate)” value turned out to be 93.9%, the “% Disp. of 125I-HP 467 (second of duplicate)” value is recorded as 92.2%, the “specificity for at least one MC receptor over another MC receptor” value is reported as “about 10 fold” and the “effectiveness as MC receptor ligand” value is given as “particularly effective MC receptor ligands”.

As for `CNC(CN)CCCCN1Cc2ccccc2C(CNC2CCCCC2)C1c1ccc2cccc(O)c2n1` (centres unmarked) [TRG 2405-262], the “% IL-10 Induction, IP 300” value in the test on IL-10 (setting [1]) is 191 ± 53 %. The IC50 at MCR-3 is more than 10000 nM. On MCR-1, the “% Disp. of 125I-HP 467 (first of duplicate)” value amounted to 66.1% and the “% Disp. of 125I-HP 467 (second of duplicate)” value was determined as 66.8%.

Consider `CNC(CN)CCCCN1Cc2ccccc2C(CN)C1c1ccc(Cl)cc1Cl` (centres unmarked) [TRG 2407-39], for which, in the test with IL-10 (setting [1]), the “% IL-10 Induction, IP 30” value is 34 ± 13% and the “% IL-10 Induction, IP 300” value is on record as 366 ± 12 %. Further, the IC50 at MCR-3 turned out to be 280 nM. For the same compound, the concentration for half-maximal inhibition (IC50) at MCR-1 (TRG 2406 and TRG 2407 libraries, inhibition of binding of 125I-HP 467) was 910 nM.

As for `CCNc1ccc(C2C(CNC3CCCCC3)c3ccccc3CN2CCCCC(CN)NC)cc1` (centres unmarked) [TRG 2408-30], in the test on IL-10 (setting [1]), the “% IL-10 Induction, IP 30” value is recorded as −20 ± 14% and the “% IL-10 Induction, IP 300” value is on record as 24 ± 12%. In the test on IL-10 (setting [2]), the “% IL-10 Induction, Oral 300” value was found to be 33 ± 18% and the “% IL-10 Induction, Oral 600” value turned out to be 136 ± 41 %. Besides, in the test on IL-10 (administered orally), the “increase of IL-10” value is on record as “particularly effective at increasing IL-10”. Also, the “increase of IL-10” value in the test with IL-10 (plasma levels in mice) is on record as “particularly effective at increasing IL-10”. Besides, the IC50 on MCR-3 is 40400 nM. At MCR-1, the “specificity for at least one MC receptor over another MC receptor” value is “about 10 fold” and the “effectiveness as MC receptor ligand” value is “particularly effective MC receptor ligands”. Further, the IC50 on MCR-1 (setting [3]) was determined as 1170 nM.

With `CCNc1ccc(C2C(CNCc3ccccc3O)c3ccccc3CN2CCCC(CN)NCCc2ccccc2)cc1` (centres unmarked) [TRG 2408-57], in the test on IL-10 (setting [1]), the “% IL-10 Induction, IP 30” value was 123 ± 30% and the “% IL-10 Induction, IP 300” value came to 386 ± 25 %. In addition, the “% IL-10 Induction, IP 100” value in the test on IL-10 (IP, 100 μg per mouse, mouse plasma, 90 or 105 minutes) was 247 ± 75 % and 225 ± 31 %. Moreover, in the test with IL-10 (setting [2]), the “% IL-10 Induction, Oral 300” value is reported as 57 ± 11 % and the “% IL-10 Induction, Oral 600” value came to 104 ± 16 %. Also, on MCR-3, the IC50 is 5170 nM. Further, the IC50 on MCR-1 (setting [3]) amounted to 280 nM. On MCR-1, the “effectiveness as MC receptor ligand” value is reported as “particularly effective MC receptor ligands”.

Consider `CCNc1ccc(C2C(CNC3CCCCC3)c3ccccc3CN2CCCC(CN)NCCc2ccccc2)cc1` (centres unmarked) [TRG 2408-62], for which, in the test on IL-10 (setting [1]), the “% IL-10 Induction, IP 30” value is given as 51 ± 15% and the “% IL-10 Induction, IP 300” value is listed as 270 ± 71 %. In the test with IL-10 (setting [2]), the “% IL-10 Induction, Oral 300” value came to 43 ± 20% and the “% IL-10 Induction, Oral 600” value turned out to be 27 ± 10%. For the same compound, the IC50 on MCR-3 turned out to be 5710 nM. Further, the IC50 at MCR-1 (setting [3]) worked out at 120 nM. The “effectiveness as MC receptor ligand” value at MCR-1 is recorded as “particularly effective MC receptor ligands”.
